# Measurements from article PMC6350621, “Small-molecules that covalently react with a human prolyl hydroxylase – towards activity modulation and substrate capture” (Chemical Communications (Cambridge, England), 2018).
# Experiments:
# PHD2 K408I = target: T1, PHD2 K408I (Homo sapiens, UniProt Q9GZT9, K408I); test: Non-denaturing ESI-MS crosslinking, K408I variant; format: binding; settings: equimolar FeSO4 and compound, 3 h, 37 °C
# T1 construct: PHD2_181–426 (hereafter PHD2); His6 (N, cleaved yes); made in house; host or cells: bacterial culture (2x TY, kanamycin, IPTG); QuikChange mutagenesis
# Source text: The site of crosslinking was investigated by trypsin digest and LC-MS/MS. The imine adducts formed by 1/2 were fixed by reduction using sodium cyanoborohydride (Fig. S12, ESI ^†). Modified protein samples were digested (trypsin) and analysed by ‘nano LC-MS/MS’.[19] In all 3 samples, modification by the respective inhibitor was identified on the trypsin-derived peptide 403[…]411, and localised to K408 (Fig. 3B and Fig. S13, ESI ^†).
# Fig. S11 Non-denaturing ESI-MS data of K408I PHD2 in the presence of equimolar amounts of FeSO4 and the Michael acceptor 3 after 3 hours incubation at 37 °C in ammonium acetate (15 mM, pH 7.5) at a sample cone voltages of (a) 80V or (b) 200V. Non-denaturing ESI-MS data of […] PHD2 in the presence of equimolar amounts of FeSO4 and 3 after 3 hours incubation at 37 °C in ammonium acetate (15 mM, pH 7.5) at a sample cone voltage of (c) 80V or (d) 200V. The peaks observed are consistent with the following complexes: (A): K408I.Fe; (B): non-covalent K408I.Fe.3 complex, (C): covalent K408I.Fe.3 complex; (D): R411M.Fe; (E): covalent R411M.Fe.3 complex.
# PHD3 = PHD3 (Homo sapiens, UniProt Q9H6Z9); test: Denaturing MS covalent adduct formation with PHD3; format: binding; settings: enzyme 20 μM, Fe(II) 30 μM, compound 30 μM, 37 °C, 4 h
# HIF-1α in HeLa cells = test: HIF-1α levels in HeLa cells by anti-HIF-1α immunoblotting; settings: 50 or 250 µM, 6 h
# T1 sequence (Q9GZT9 181-426 K408I): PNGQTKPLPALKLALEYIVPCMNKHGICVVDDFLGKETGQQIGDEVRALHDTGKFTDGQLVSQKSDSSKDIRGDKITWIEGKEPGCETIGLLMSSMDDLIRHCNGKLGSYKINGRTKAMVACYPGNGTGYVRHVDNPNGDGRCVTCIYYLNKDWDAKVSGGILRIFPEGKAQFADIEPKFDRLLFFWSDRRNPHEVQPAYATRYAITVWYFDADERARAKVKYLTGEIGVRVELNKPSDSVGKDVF
# Chain of PHD3 (Q9H6Z9 whole entry): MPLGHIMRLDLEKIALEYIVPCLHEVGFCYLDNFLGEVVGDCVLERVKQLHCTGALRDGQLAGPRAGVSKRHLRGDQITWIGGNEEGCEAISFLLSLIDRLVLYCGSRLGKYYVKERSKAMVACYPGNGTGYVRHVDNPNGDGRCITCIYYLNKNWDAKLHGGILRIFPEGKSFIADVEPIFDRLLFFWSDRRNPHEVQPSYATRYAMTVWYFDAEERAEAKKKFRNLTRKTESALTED
compound,measurement,setting,value
C=CC(=O)Nc1cccc(C(=O)NCC(=O)O)c1O [compound 3],apparent covalent modification of PHD2 K408I,PHD2 K408I,< 10%
same,covalent reaction with PHD3,PHD3,did not covalently react
same,HIF-1α upregulation in HeLa cells,HIF-1α in HeLa cells,no upregulation of HIF-1α
